Data on one molecule can be found in US7371780B2, “Use of calphostin C to treat drug-resistant tumor cells” (priority 2003, dated 2008).

The subject of assay [1] is mouse B16BL6 melanoma cells. Kind of assay: Death and cytoplasmic vacuolization, B16BL6. The format is cell-based. Particulars: data not shown.
The next assay has as its system MCF-7 cells. Kind of assay: Microscopic cell morphology (bright field, AO/EB, PI), MCF-7. The format is cell-based, human. Particulars: 50 nM light-activated calphostin C. On the procedure:
For microscopic observation, cells were seeded onto standard glass coverslips in 10 cm tissue culture plates with 10 ml of H21 medium and grown for 2 days until 40-50% confluence was obtained. After treatment with paclitaxel, doxorubicin or calphostin C, the cells on the glass coverslips were washed twice with PBS (2.7 mM KCl, 1.0 mM KH2PO4, 137 mM NaCl, 10 mM Na2HPO4, pH 7.4) and stained with acridine orange/ethidium bromide (each at 4 μg/ml in PBS) for 10 min at 37° C.. The coverslips were then washed three times in PBS and mounted onto standard glass slides for morphological evaluation. For propidium iodide (PI) staining, the cells on coverslips were washed twice with PBS and fixed in methanol (cooled to −20° C.) for 20 min. Thirty μl of propidium iodide (PI) staining solution (100 μg/ml PI, 0.1% sodium citrate, 100 μg/ml RNase A and 0.3% Nonidet P-40) were then applied to the coverslips for 5 min. […] The cells were then examined using a Zeiss Axiovert 100 inverted fluorescence microscope. […] For each sample, the number of dead cells was determined by visualization after ethidium bromide staining, whereby only dead cells which have lost membrane integrity allow entry of cell-impermeable ethidium bromide into cells to complex with DNA and induce bright red fluorescence. […] The images were recorded and overlayed using Northern Eclipse software (Empix Imaging Inc., Mississauga, ON).

The subject of assay [2] is caspase-8, PARP and cytochrome C in MCF-7 cells. Kind of assay: Immunoblotting of apoptosis markers, MCF-7. The format is cell-based, human. On the procedure: For preparation of mitochondrial and cytoplasmic cellular fractions, MCF-7, MCF-7TAX, and MCF-7DOX cells were grown in a monolayer to 70-90% confluence on 10 cm tissue culture plates. Twenty-four hours prior to extraction, the cells were treated with 50 nM light-activated calphostin C as described above. After this treatment, the cells were trypsinized, centrifuged at 1000 rpm in a Beckman GP centrifuge and washed with PBS. To the resulting cell pellet, 1 ml of ice-cold homogenization (HM) buffer was added. This buffer consisted of 85.55 g sucrose, 1.406 g MOPS, 0.292 g EDTA, and 1 ml ethanol per liter of solution, with a final pH of 7.2. Prior to use, 0.2 ml of 0.1 M PMSF, 1 Complete™ protease inhibitor tablet (Roche Diagnostics, Laval, QC), and 20 μl of 1 M DTT was added for 100 ml of HM buffer. Cells were then lysed 10 times by homogenization in a 2 ml dounce homogenizer. Nuclei in the lysate were then pelleted by centrifugation in a microfuge tube at 70 g for 10 minutes at 4° C. and the supernatant carefully removed. The supernatant was clarified by centrifugation at 1950 g for 10 minutes at 4° C. and the pellet (containing mitochondria) was resuspended in 50 μl of HM buffer. The remaining clarified supernatant was deemed the cytoplasmic fraction. […]

`COc1c(C[C@@H](C)OC(=O)Oc2ccc(O)cc2)c2c3c(C[C@@H](C)OC(=O)c4ccccc4)c(OC)c(=O)c4c(O)cc(OC)c(c5c(OC)cc(O)c(c1=O)c52)c43` [calphostin C]: the “induction of death and cytoplasmic vacuolization” value in assay [1] is “induce both death and cytoplasmic vacuolization”. Further, the “percentage of cells showing cytoplasmic vacuoles” value with MCF-7 cells was “Over 50%”. The “caspase-8 and PARP cleavage (protein levels)” value in assay [2] (light-activated calphostin C, whole cell extracts) is listed as “did not result in any change”. Besides, the “release of cytochrome C from mitochondria” value in assay [2] (mitochondrial and cytoplasmic fractions) was “no clear evidence for the release of cytochrome C”.
